Results as given in patent publication US9139557B2, “Carboxamide compounds and their use as calpain inhibitors” (Abbott GmbH & Co. KG, priority 2006, dated 2015).

What was measured:
Assay type in all cases: biochemical
cathepsin B = target: T1, cathepsin B (Homo sapiens, UniProt P07858); assay: Cathepsin B enzyme inhibition in vitro (kinetic fluorescence assay); details: Ki(cathepsin B)/Ki(calpain) ratio
T1 construct: cathepsin B—isolated from human liver; purchased Calbiochem 219362; host or cells: human liver (tissue isolate)
Description: (§1) Testing for blockade of the corresponding enzymic activities was carried out by means of kinetic fluorescence assays (excitation 390 nm, emission 460 nm).
(§2) Apparent Ki values were calculated from the experimentally determined IC50 values by the Cheng-Prussoff relation assuming a reversible competitive enzyme inhibition. The Km values of the substrates used under the assay conditions indicated above were: 90 μM (Z-Phe-Arg-AMC, cathepsin B), 10 μM (Z-Gly-Pro-Arg-AMC, cathepsin K), 2 μM (Z-Phe-Arg-AMC, cathepsin L), and 30 μM (Z-Val-Val-Arg-AMC, cathepsin S).
(§3) The indicated Ki values are averages of the inhibition constants calculated on the basis of 2 to 4 independent dose-effect plots.
(§4) • 1. Calpain I: • 20 nM calpain-I—isolated from human erythrocytes (Calbiochem #208713), 100 μM Suc-Leu-Tyr-AMC (Bachem #1-1355) as substrate in buffer with 62 mM imidazole, 0.3 mM CaCl2, 0.10% CHAPS, 0.05% BSA, 1 mM DTT at pH 7.3 and room temperature. • 2. Cathepsin B: • 0.25 nM cathepsin B—isolated from human liver (Calbiochem #219362), 100 μM Z-Phe-Arg-AMC (Bachem #1-1160) as substrate 50 mM MES, 2 mM EDTA, 0.05% Brij 35, 2.5 mM L-cysteine, pH 6.0, room temperature. • 3. Cathepsin K: • 3 nM cathepsin K—activated from recombinant human procathepsin K from E. coli (Calbiochem #342001), 10 μM Z-Gly-Pro-Arg-AMC (Biomol #P-142) as substrate in 50 mM MES, 2 mM EDTA, 0.05% Brij 35, 2.5 mM L-cysteine, pH 6.0, room temperature. • 4. Cathepsin L: • 1 nM cathepsin L—isolated from human liver (Calbiochem #219402), 2 μM Z-Phe-Arg-AMC (Bachem #1-1160) as substrate in 50 mM MES, 2 mM EDTA, 0.05% Brij 35, 2.5 mM L-cysteine, pH 6.0, room temperature. • 5. Cathepsin S: • 0.5 nM recombinant human cathepsin S from E. coli (Calbiochem #219343), 20 μM Z-Val-Val-Arg-AMC (Bachem #1-1540) as substrate in 50 mM MES, 2 mM EDTA, 0.05% Brij 35, 2.5 mM L-cysteine, pH 6.0, room temperature.

cathepsin K = target: T2, cathepsin K (Homo sapiens, UniProt P43235); assay: Cathepsin K enzyme inhibition in vitro (kinetic fluorescence assay); details: Ki(cathepsin K)/Ki(calpain) ratio
T2 construct: purchased Calbiochem 342001; host or cells: E. coli
T2 sequence (P43235 115-329): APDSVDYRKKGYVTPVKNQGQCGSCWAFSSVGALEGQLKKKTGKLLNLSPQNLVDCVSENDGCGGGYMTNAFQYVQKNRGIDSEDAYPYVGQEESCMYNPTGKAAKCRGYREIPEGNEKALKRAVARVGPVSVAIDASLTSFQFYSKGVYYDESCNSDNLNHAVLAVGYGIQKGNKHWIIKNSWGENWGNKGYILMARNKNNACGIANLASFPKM
Description: as §1, §2, §3, §4

cathepsin L = target: T3, cathepsin L (Homo sapiens, UniProt P07711); assay: Cathepsin L enzyme inhibition in vitro (kinetic fluorescence assay); details: Ki(cathepsin L)/Ki(calpain) ratio
T3 construct: cathepsin L—isolated from human liver; purchased Calbiochem 219402; host or cells: human liver (tissue isolate)
T3 sequence (P07711 114-333): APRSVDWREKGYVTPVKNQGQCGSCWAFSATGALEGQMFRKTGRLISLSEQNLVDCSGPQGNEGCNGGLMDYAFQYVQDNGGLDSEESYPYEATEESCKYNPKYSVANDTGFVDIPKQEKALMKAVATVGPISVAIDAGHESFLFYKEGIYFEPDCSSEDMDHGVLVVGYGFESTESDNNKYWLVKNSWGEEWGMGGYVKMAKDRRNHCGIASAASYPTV
Outline: (§5)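 Kinetic fluorescence (ex 390/em 460 nm), room temperature: calpain-I (human erythrocyte, 20 nM) with 100 µM Suc-Leu-Tyr-AMC, imidazole/CaCl2 pH 7.3; cathepsin B (liver, 0.25 nM), 100 µM Z-Phe-Arg-AMC; L (liver, 1 nM), 2 µM Z-Phe-Arg-AMC; S (recombinant, 0.5 nM), 20 µM Z-Val-Val-Arg-AMC; cathepsins in MES/EDTA/cysteine pH 6.0. Apparent Ki via Cheng-Prusoff, 2–4 curves averaged.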

cathepsin S = target: T4, cathepsin S (Homo sapiens, UniProt P25774); assay: Cathepsin S enzyme inhibition in vitro (kinetic fluorescence assay); details: Ki(cathepsin S)/Ki(calpain) ratio
T4 construct: purchased Calbiochem 219343; host or cells: E. coli
T4 sequence (P25774 115-331): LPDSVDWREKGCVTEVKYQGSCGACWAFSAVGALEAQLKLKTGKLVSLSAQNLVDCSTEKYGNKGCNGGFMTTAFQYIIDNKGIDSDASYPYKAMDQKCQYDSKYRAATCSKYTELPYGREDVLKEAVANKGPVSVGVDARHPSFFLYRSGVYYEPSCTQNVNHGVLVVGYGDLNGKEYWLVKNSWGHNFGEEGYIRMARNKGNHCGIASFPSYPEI
Outline: as §5

Row | SMILES | Sel cat. B (cathepsin B) | Sel cat. K (cathepsin K) | Sel cat. L (cathepsin L) | Sel cat. S (cathepsin S)
1 | NC(=O)C(=O)C(Cc1ccccc1)NC(=O)c1cccnc1-n1ccc(-c2cccc(OC(F)(F)F)c2)n1 (stereo not shown) [Example 168, N-[3-Amino-2,3-dioxo-1-(phenylmethyl)propyl]-2-(3-{3-[(trifluoromethyl)oxy]phenyl}-1H-pyrazol-1-yl)pyridine-3-carboxamide] | + (+ means 10≦Ki(cathepsin B)/Ki(calpain)<30) | + (+ means 10≦Ki(cathepsin K)/Ki(calpain)<30) | ++ (++ means a Ki(cathepsin L)/Ki(calpain) ratio of ≧50) | ++ (++ means a Ki(cathepsin S)/Ki(calpain) ratio of ≧100)
2 | NC(=O)C(=O)C(Cc1ccccc1)NC(=O)c1cccnc1-n1ccc(-c2ccccc2OC(F)F)n1 (stereo not shown) [Example 166, N-[3-Amino-2,3-dioxo-1-(phenylmethyl)propyl]-2-(3-{2-[(difluoromethyl)oxy]phenyl}-1H-pyrazol-1-yl)pyridine-3-carboxamide] | + (+ means 10≦Ki(cathepsin B)/Ki(calpain)<30) | ++ (++ means a Ki(cathepsin K)/Ki(calpain) ratio of ≧30) | ++ (++ means a Ki(cathepsin L)/Ki(calpain) ratio of ≧50) | ++ (++ means a Ki(cathepsin S)/Ki(calpain) ratio of ≧100)
3 | NC(=O)C(=O)C(Cc1ccccc1)NC(=O)c1cccnc1-n1ccc(-c2ccc(F)cc2)n1 (stereo not shown) [Example 38, N-(3-Amino-1-benzyl-2,3-dioxopropyl)-2-[3-(4-fluorophenyl)-1H-pyrazol-1-yl]nicotinamide] | + (+ means 10≦Ki(cathepsin B)/Ki(calpain)<30) | + (+ means 10≦Ki(cathepsin K)/Ki(calpain)<30) | ++ (++ means a Ki(cathepsin L)/Ki(calpain) ratio of ≧50) | ++ (++ means a Ki(cathepsin S)/Ki(calpain) ratio of ≧100)
4 | NC(=O)C(=O)C(Cc1ccc(OC(F)(F)F)cc1)NC(=O)c1cccnc1-n1ccc(-c2ccccc2)n1 (stereo not shown) [Example 133] | ++ (++ means a Ki(cathepsin B)/Ki(calpain) ratio of ≧30) | ++ (++ means a Ki(cathepsin K)/Ki(calpain) ratio of ≧30) | ++ (++ means a Ki(cathepsin L)/Ki(calpain) ratio of ≧50) | ++ (++ means a Ki(cathepsin S)/Ki(calpain) ratio of ≧100)
5 | COc1ccc(Cl)cc1-c1ccn(-c2ncccc2C(=O)NC(Cc2ccccc2)C(=O)C(N)=O)n1 (stereo not shown) [Example 131, N-[3-Amino-2,3-dioxo-1-(phenylmethyl)propyl]-2-{3-[5-chloro-2-(methyloxy)phenyl]-1H-pyrazol-1-yl}pyridine-3-carboxamide] | ++ (++ means a Ki(cathepsin B)/Ki(calpain) ratio of ≧30) | ++ (++ means a Ki(cathepsin K)/Ki(calpain) ratio of ≧30) | ++ (++ means a Ki(cathepsin L)/Ki(calpain) ratio of ≧50) | ++ (++ means a Ki(cathepsin S)/Ki(calpain) ratio of ≧100)
6 | NC(=O)C(=O)C(Cc1ccccc1)NC(=O)c1cccnc1-n1ccc(-c2ccc(Cl)cc2Cl)n1 (stereo not shown) [Example 79, N-(3-Amino-1-benzyl-2,3-dioxopropyl)-2-[3-(2,4-dichlorophenyl)-1H-pyrazol-1-yl]nicotinamide] | ++ (++ means a Ki(cathepsin B)/Ki(calpain) ratio of ≧30) | ++ (++ means a Ki(cathepsin K)/Ki(calpain) ratio of ≧30) | ++ (++ means a Ki(cathepsin L)/Ki(calpain) ratio of ≧50) | ++ (++ means a Ki(cathepsin S)/Ki(calpain) ratio of ≧100)
7 | COc1ccc2c(c1)-c1nn(-c3ncccc3C(=O)NC(Cc3ccccc3)C(=O)C(N)=O)cc1CO2 (stereo not shown) [Example 183, N-[3-Amino-2,3-dioxo-1-(phenylmethyl)propyl]-2-[8-(methyloxy)chromeno[4,3-c]pyrazol-2(4H)-yl]pyridine-3-carboxamide] | + (+ means 10≦Ki(cathepsin B)/Ki(calpain)<30) | + (+ means 10≦Ki(cathepsin K)/Ki(calpain)<30) | ++ (++ means a Ki(cathepsin L)/Ki(calpain) ratio of ≧50) | ++ (++ means a Ki(cathepsin S)/Ki(calpain) ratio of ≧100)
8 | NC(=O)C(=O)C(Cc1ccccc1)NC(=O)c1cccnc1-n1ccc(-c2ccc(N3CCOCC3)cc2F)n1 (stereo not shown) [Example 102, N-[3-Amino-2,3-dioxo-1-(phenylmethyl)propyl]-2-[3-(2-fluoro-4-morpholin-4-ylphenyl)-1H-pyrazol-1-yl]pyridine-3-carboxamide] | + (+ means 10≦Ki(cathepsin B)/Ki(calpain)<30) | ++ (++ means a Ki(cathepsin K)/Ki(calpain) ratio of ≧30) | ++ (++ means a Ki(cathepsin L)/Ki(calpain) ratio of ≧50) | ++ (++ means a Ki(cathepsin S)/Ki(calpain) ratio of ≧100)
9 | COc1ccc(CC(NC(=O)c2cccnc2-n2ccc(-c3ccc(F)cc3Cl)n2)C(=O)C(N)=O)cc1 (stereo not shown) [Example 111, N-(3-Amino-1-{[4-(methyloxy)phenyl]methyl}-2,3-dioxopropyl)-2-[3-(2-chloro-4-fluorophenyl)-1H-pyrazol-1-yl]pyridine-3-carboxamide] | ++ (++ means a Ki(cathepsin B)/Ki(calpain) ratio of ≧30) | ++ (++ means a Ki(cathepsin K)/Ki(calpain) ratio of ≧30) | ++ (++ means a Ki(cathepsin L)/Ki(calpain) ratio of ≧50) | ++ (++ means a Ki(cathepsin S)/Ki(calpain) ratio of ≧100)
10 | COc1ccc2c(c1)OCc1cn(-c3ncccc3C(=O)NC(Cc3ccccc3)C(=O)C(N)=O)nc1-2 (stereo not shown) [Example 142, N-[3-Amino-2,3-dioxo-1-(phenylmethyl)propyl]-2-[7-(methyloxy)chromeno[4,3-c]pyrazol-2(4H)-yl]pyridine-3-carboxamide] | + (+ means 10≦Ki(cathepsin B)/Ki(calpain)<30) | + (+ means 10≦Ki(cathepsin K)/Ki(calpain)<30) | ++ (++ means a Ki(cathepsin L)/Ki(calpain) ratio of ≧50) | ++ (++ means a Ki(cathepsin S)/Ki(calpain) ratio of ≧100)
11 | NC(=O)C(=O)C(Cc1ccccc1)NC(=O)c1cccnc1-n1ccc(-c2c(Cl)cccc2Cl)n1 (stereo not shown) [Example 95, N-[3-Amino-2,3-dioxo-1-(phenylmethyl)propyl]-2-[3-(2,6-dichlorophenyl)-1H-pyrazol-1-yl]pyridine-3-carboxamide] | ++ (++ means a Ki(cathepsin B)/Ki(calpain) ratio of ≧30) | ++ (++ means a Ki(cathepsin K)/Ki(calpain) ratio of ≧30) | ++ (++ means a Ki(cathepsin L)/Ki(calpain) ratio of ≧50) | ++ (++ means a Ki(cathepsin S)/Ki(calpain) ratio of ≧100)
12 | NC(=O)C(=O)C(Cc1ccccc1)NC(=O)c1cccnc1-n1ccc(-c2cccc(C(F)(F)F)c2)n1 (stereo not shown) [Example 83, N-(3-Amino-1-benzyl-2,3-dioxopropyl)-2-{3-[3-(trifluoromethyl)phenyl]-1H-pyrazol-1-yl}nicotinamide] | + (+ means 10≦Ki(cathepsin B)/Ki(calpain)<30) | ++ (++ means a Ki(cathepsin K)/Ki(calpain) ratio of ≧30) | ++ (++ means a Ki(cathepsin L)/Ki(calpain) ratio of ≧50) | ++ (++ means a Ki(cathepsin S)/Ki(calpain) ratio of ≧100)
13 | NC(=O)C(=O)C(Cc1ccc(OC(F)(F)F)cc1)NC(=O)c1cccnc1-n1ccc(-c2ccc(F)cc2)n1 (stereo not shown) [Example 132, N-[3-Amino-2,3-dioxo-1-({4-[(trifluoromethyl)oxy]phenyl}methyl)propyl]-2-[3-(4-fluorophenyl)-1H-pyrazol-1-yl]pyridine-3-carboxamide] | + (+ means 10≦Ki(cathepsin B)/Ki(calpain)<30) | ++ (++ means a Ki(cathepsin K)/Ki(calpain) ratio of ≧30) | ++ (++ means a Ki(cathepsin L)/Ki(calpain) ratio of ≧50) | ++ (++ means a Ki(cathepsin S)/Ki(calpain) ratio of ≧100)
